# Laboratory results: BindingDB's records for doi:10.1002/cbic.200800782 (Philipps-UniversitÄT Marburg, 2009)
# Target: Queuine tRNA-ribosyltransferase (Zymomonas mobilis subsp. mobilis (strain ATCC 31821 / ZM4 / CP4), UniProt P28720)
# Test: Enzyme Assay
# Details: pH 7.3
# Source text: Inhibition assay using tRNA-guanine transglycosylase (TGT).
# Chain of Queuine tRNA-ribosyltransferase (P28720 whole entry): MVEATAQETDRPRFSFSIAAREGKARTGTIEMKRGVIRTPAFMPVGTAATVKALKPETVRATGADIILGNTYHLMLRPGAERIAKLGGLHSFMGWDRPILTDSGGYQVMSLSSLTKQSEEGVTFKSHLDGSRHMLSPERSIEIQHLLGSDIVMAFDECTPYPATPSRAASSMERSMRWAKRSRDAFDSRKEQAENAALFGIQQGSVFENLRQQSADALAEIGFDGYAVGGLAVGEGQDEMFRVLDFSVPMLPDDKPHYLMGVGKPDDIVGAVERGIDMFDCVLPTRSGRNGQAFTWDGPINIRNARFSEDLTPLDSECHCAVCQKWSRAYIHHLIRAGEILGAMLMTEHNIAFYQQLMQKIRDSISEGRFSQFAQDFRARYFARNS
row,Ki [nM],SMILES
1,5.8,"CNc1nc2cc3c(=O)[nH]c(N)nc3cc2[nH]1 [lin-benzoguanine scaffold, 6]"
2,4100,"Nc1nc2cc3nc[nH]c3cc2c(=O)[nH]1 [lin-benzoguanine scaffold, 3]"
3,3.5,"Nc1nc2cc3nc(NCc4cccs4)[nH]c3cc2c(=O)[nH]1 [lin-benzoguanine scaffold, 7]"
4,77,"Nc1nc2cc3nc(N)[nH]c3cc2c(=O)[nH]1 [lin-benzoguanine scaffold, 5]"
5,31000,"CN(C)c1ccc2c(=O)[nH]c(N)nc2c1 [Quinazolinone scaffold, 1]"
6,10,"Nc1nc2cc3nc(NCCc4ccccc4)[nH]c3cc2c(=O)[nH]1 [lin-benzoguanine scaffold, 10]"
7,5.5,"Nc1nc2cc3nc(NCc4cccc5ccccc45)[nH]c3cc2c(=O)[nH]1 [lin-benzoguanine scaffold, 8]"
8,1500,"Cc1nc2cc3nc(N)[nH]c(=O)c3cc2[nH]1 [lin-benzoguanine scaffold, 4]"
9,6,"Nc1nc2cc3[nH]c(NCCN4CCOCC4)nc3cc2c(=O)[nH]1 [lin-benzoguanine scaffold, 9]"
10,7600,"CN(Cc1ccccc1)c1ccc2c(=O)[nH]c(N)nc2c1 [Quinazolinone scaffold, 2]"
